Reference: patent US11116757B2 (priority 2015, dated 2021)

Target: DCN1-UBC12 interaction (Homo sapiens (Human), UniProt Q96GG9)
Assay: biochemical
Type: binding
Details: TR-FRET IC50

Sequence of DCN1-UBC12 interaction (Q96GG9 60-248 limits assumed): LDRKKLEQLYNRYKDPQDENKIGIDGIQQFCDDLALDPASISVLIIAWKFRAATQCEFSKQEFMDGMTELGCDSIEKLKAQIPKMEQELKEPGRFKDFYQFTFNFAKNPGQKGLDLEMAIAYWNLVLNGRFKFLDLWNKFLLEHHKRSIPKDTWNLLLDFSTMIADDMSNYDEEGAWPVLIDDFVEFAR

Molecule	IC50 [µM]
CCCC(C)N1CCC(N(Cc2ccccc2)C(=O)Nc2cccc(Cl)c2)CC1 (stereo not shown) [A35]	0.203

Same assay, conditions: Table 4, commercial compounds; read-out: TR-FRET IC50

Molecule	IC50 [µM]
CCc1cccc(NC(=O)C2CCN(C(=O)N3CC(CC)Oc4ccccc43)CC2)c1 (stereo not shown) [C56]	> 67.6
CCc1ccccc1NC(=O)C1CCN(C(=O)c2ccc(F)cc2)CC1 [C67]	> 75.6
Cc1ccccc1/C=C/C(=O)N1CCC(C(=O)Nc2ccc3c(c2)OCO3)CC1 [C61]	> 67.6
CCC1CN(C(=O)N2CCC(C(=O)Nc3cccc(Cl)c3)CC2)c2ccccc2O1 (stereo not shown) [C55]	> 67.6
COc1ccc(C(=O)N2CCC(C(=O)Nc3cccc(C)c3C)CC2)cc1 [C19]	> 67.6
O=C(Nc1ccc(F)c(Cl)c1)C1CCN(C(=O)c2ccc(Cl)cc2)CC1 [C66]	> 75.6
Cc1cccc(NC(=O)C2CCN(C(=O)c3cccc(F)c3)CC2)c1 [C44]	> 67.6
COc1ccc(Cl)cc1NC(=O)C1CCN(C(=O)c2ccccc2F)CC1 [C42]	> 67.6
O=C(Nc1cccc(F)c1)C1CCN(C(=O)c2cnn(-c3ccccc3)c2-n2cccc2)CC1 [C50]	> 67.6
O=C(Nc1cccc(C(F)(F)F)c1)C1CCN(C(=O)c2ccco2)CC1 [C68]	> 75.7
CC(=O)Nc1ccc(NC(=O)C2CCN(C(=O)c3cccs3)CC2)cc1 [C35]	> 67.6

Same assay, conditions: Table 6, commercial compounds; read-out: TR-FRET IC50

Molecule	IC50 [µM]
C=CCN(CC=C)C(=O)c1cnn(-c2ncc(C)c(-c3cccs3)n2)c1C [E48]	> 67.6
CCN(CC)CCN(CC)C(=O)c1cnn(-c2ncc(C)c(-c3cccs3)n2)c1C1CC1 [E18]	38.1
CCN1CCN(C(=O)c2cnn(-c3nccc(-c4cccs4)n3)c2C(C)C)CC1 [E4]	13.1
CCN(CC)CCN(C)C(=O)c1cnn(-c2nccc(-c3cccs3)n2)c1C1CC1 [E34]	> 67.6
CCN(CC)CCN(CC)C(=O)c1cnn(-c2nccc(-c3cccs3)n2)c1C1CC1 [E2]	4.53
CCCN1CCN(C(=O)c2cnn(-c3nccc(-c4cccs4)n3)c2COC)CC1 [E27]	> 16.7
CC(C)N1CCN(C(=O)c2cnn(-c3nccc(-c4cccs4)n3)c2C2CC2)CC1 [E43]	> 67.6
Cc1cnc(-n2ncc(C(=O)N3CCN(C(C)C)CC3)c2C)nc1-c1cccs1 [E35]	> 67.6
CN1CCN(C(=O)c2cnn(-c3nccc(-c4cccs4)n3)c2C2CC2)CC1 [E33]	> 67.6

Same assay, conditions: Table 7, commercial compounds; read-out: TR-FRET IC50

Molecule	IC50 [µM]
CCOc1ccc(C2c3c(C)nn(C)c3NC(=O)C2NC(=O)c2cccc(C)c2)cc1 (stereo not shown) [F23]	> 67.6
COc1cccc(C2c3c(C)nn(C)c3NC(=O)C2NC(=O)c2cccc(C)c2)c1 (stereo not shown) [F27]	> 67.6
Cc1cccc(C(=O)NC2C(=O)Nc3c(c(C)nn3C)C2c2cccc(F)c2)c1 (stereo not shown) [F15]	> 67.6
CCc1ccc(C2c3c(C)nn(C)c3NC(=O)C2NC(=O)c2ccc(OC)c(OC)c2)cc1 (stereo not shown) [F24]	> 67.6
COc1ccc(C2c3c(C)nn(C)c3NC(=O)C2NC(=O)c2ccc(OC)c(OC)c2)cc1F (stereo not shown) [F20]	> 67.6
CSc1ccc(C2c3c(C)nn(C)c3NC(=O)C2NC(=O)c2cccc(C)c2)cc1F (stereo not shown) [F7]	41.5

Same assay, conditions: read-out: TR-FRET IC50

Molecule	IC50 [µM]
O=C(Nc1cccc(C(F)(F)F)c1)NC1CCN(Cc2ccccc2F)CC1 [A238, 1-(1-(2-Fluorobenzyl)Piperidin-4-yl)-3-(3-(Trifluoromethyl)Phenyl)Urea]	> 49.4
1-Benzyl-1-(1-(Cyclohexylmethyl)Piperidin-4-yl)-3-(3-(Trifluoromethyl)Phenyl)Urea [A149]	5.25
CCCC(C)N1CCC(N(Cc2ccccc2)C(=O)Nc2ccc(S(=O)(=O)Nc3ccc(OC)nn3)cc2)CC1 (stereo not shown) [A296]	> 83.4
Cc1ccc(CN2CCC(N(Cc3ccccc3)C(=O)Nc3cc(F)cc(C(F)(F)F)c3)CC2)s1 [A227]	> 27
O=C(Nc1cccc(SC(F)(F)F)c1)NC1CCN(Cc2ccccc2)CC1 [B8]	16.6
Cn1ccnc1CN1CCC(N(Cc2ccccc2)C(=O)Nc2cc(F)cc(C(F)(F)F)c2)CC1 [A229]	> 28.6
CCCC(C)N1CCC(N(Cc2ccccc2)C(=O)Nc2cc(Br)ccc2Cl)CC1 (stereo not shown) [A267]	> 66.9
O=C(Nc1ccc2c(c1)OCCO2)N(Cc1ccco1)C1CCN(Cc2ccccc2)CC1 [B115]	> 74.6
CCCCN1CCC(N(Cc2ccccc2)C(=O)Nc2cccc(C(F)(F)F)c2F)CC1 [A70]	0.583
O=C(Nc1cccc(C(F)(F)F)c1)N[C@H]1CCN(Cc2ccccc2)C[C@@H]1OC(=O)Nc1cccc(C(F)(F)F)c1 [A249]	> 59.6
CC(=O)O[C@H]1CN(Cc2ccccc2)CC[C@@H]1NC(=O)Nc1cccc(C(F)(F)F)c1 [A160]	7.89
CCCC(C)N1CCC(N(Cc2ccccc2)C(=O)Nc2cccc(N3CCOCC3)c2)CC1 (stereo not shown) [A297]	> 83.6
CCCC(C)N1CCC(N(Cc2ccccc2)C(=O)Nc2ccc(F)c(F)c2F)CC1 (stereo not shown) [A286]	> 72.4
CCCC(C)N1CCC(N(Cc2ccccc2)C(=O)Nc2ccc(F)cc2)CC1 (stereo not shown) [A269]	> 67.2
CCCC(C)N1CCC(N(Cc2ccccc2)C(=O)Nc2ccc(Cl)c(Cl)c2)CC1 (stereo not shown) [A46]	0.257
CCCC(C)N1CCC(N(Cc2ccccc2)C(=O)Nc2c(C)cc(Br)cc2C)CC1 (stereo not shown) [A265]	> 65.7
Cn1ccc2cc(CN3CCC(N(Cc4ccccc4)C(=O)Nc4cc(F)cc(C(F)(F)F)c4)CC3)ccc21 [A205]	> 20.8
CCCN1CCC(N(CC2CCCCC2)C(=O)Nc2cccc(C(F)(F)F)c2)CC1 [A92, 1-(Cyclohexylmethyl)-1-(1-Propylpiperidin-4-yl)-3-(3-(Trifluoromethyl)Phenyl)Urea]	1.23
O=C(c1ccccc1Cl)N1CCC(c2nc3ccccc3s2)CC1 [D6]	18.5
CCCC(C)N1CCC(N(Cc2ccccc2)C(=O)Nc2ccccc2F)CC1 (stereo not shown) [A295]	> 81.1

Molecule	IC50 [µM]
CCc1ccccc1NC(=O)N(Cc1ccco1)C1CCN(C(C)=O)CC1 [B74]	> 67.6
COc1ccccc1NC(=O)N(Cc1ccco1)C1CCN(C(C)=O)CC1 [B68]	> 67.6
CC(=O)N1CCC(N(Cc2ccco2)C(=O)Nc2ccc(Br)c(C)c2)CC1 [B18]	64.1
O=C(Nc1cc(F)cc(C(F)(F)F)c1)N(Cc1ccccc1)C1CCN(Cc2ccncc2)CC1 [A228]	> 28.3
CCOc1ccccc1NC(=O)N(Cc1ccc(C)o1)C1CCN(C(C)=O)CC1 [B88]	> 67.6
CCN1CCC(N(Cc2ccco2)C(=O)Nc2cc(Cl)ccc2C)CC1 [B78]	> 67.6
O=C(c1ccc(I)cc1)N1CCCC(c2nc3ccccc3s2)C1 (stereo not shown) [D31]	> 67.6
CC(c1ccccn1)N1CCC(N(Cc2ccccc2)C(=O)Nc2cc(F)cc(C(F)(F)F)c2)CC1 (stereo not shown) [A145]	4.57
O=C(Nc1cccc(C(F)(F)F)c1)NC1CCN(Cc2cccc(F)c2)CC1 [A183, 1-(1-(3-Fluorobenzyl)Piperidin-4-yl)-3-(3-(Trifluoromethyl)Phenyl)Urea]	21.9
COc1cc(C(=O)N2CCC(c3nc4ccccc4s3)CC2)cc(OC)c1Br [D1]	2.31
O=C(CN1CCC(Cc2ccccc2)CC1)Nc1cc(C(F)(F)F)cc(C(F)(F)F)c1 [B118]	> 78.5
O=C(Nc1cc(C(F)(F)F)ccc1Cl)NC1CCN(Cc2ccccc2)CC1 [B101]	> 69.8
CCCN1CCC(N(Cc2cc(F)cc(C(F)(F)F)c2)C(=O)Nc2cccc(C(F)(F)F)c2)CC1 [A68, 1-(3-Fluoro-5-(Trifluoromethyl)Benzyl)-1-(1-Propylpiperidin-4-yl)-3-(3-(Trifluoromethyl)Phenyl)Urea]	0.488
CCCC(C)N1CCC(N(Cc2cccnc2)C(=O)Nc2cc(F)cc(C(F)(F)F)c2)CC1 (stereo not shown) [A39]	0.213
CCOc1ccc(C(=O)NCC(=O)N2CCC(c3nc4ccccc4s3)CC2)cc1 [D33]	> 67.6
COc1ccc(C)cc1NC(=O)N(Cc1ccc(C)o1)C1CCN(Cc2ccccc2)CC1 [B95]	> 67.6
CCCC(C)N1CCC(N(Cc2ccccc2)C(=O)Nc2cccc(C)c2)CC1 (stereo not shown) [A82]	0.883
O=C(Nc1cccnc1Cl)NC1CCN(C(=O)c2ccccc2F)CC1 [B30]	> 53.3
Cc1cc(C)cc(C(=O)N2CCCC(c3nc4ccccc4s3)C2)c1 (stereo not shown) [D32]	> 67.6
CCCC(C)N1CCC(N(Cc2ccccc2)C(=O)Nc2cc(F)cc(C(F)(F)F)c2)CC1 (stereo not shown) [A6]	0.058

Molecule	IC50 [µM]
CCCC(C)N1CCC(N(Cc2ccccc2)C(=O)Nc2ccc(CC)cc2)CC1 (stereo not shown) [A56]	0.315
CCCC(C)N1CCC(N(Cc2ccccc2)C(=O)Nc2ccc(F)c(Cl)c2)CC1 (stereo not shown) [A53]	0.287
CC(CCN1CCC(N(Cc2ccccc2)C(=O)Nc2cc(F)cc(C(F)(F)F)c2)CC1)c1ccccc1 (stereo not shown) [A127]	2.23
CCCC(C)N1CCC(N(Cc2ccccc2)C(=O)Nc2cccc(C(=O)OC)c2)CC1 (stereo not shown) [A81]	0.88
CCCC(C)N1CCC(N(Cc2ccccc2)C(=O)Nc2cc(F)c(F)cc2F)CC1 (stereo not shown) [A166]	10.1
CC(C1CCC1)N1CCC(N(Cc2ccccc2)C(=O)Nc2cc(F)cc(C(F)(F)F)c2)CC1 (stereo not shown) [A118]	0.143
Cc1ccc(NC(=O)NC2CCN(Cc3ccccc3)CC2)cc1C [B63]	> 67.6
O=C(Nc1cccc(C(F)(F)F)c1)NC1CCN(Cc2ccc(Cl)cc2)CC1 [A186, 1-(1-(4-Chlorobenzyl)Piperidin-4-yl)-3-(3-(Trifluoromethyl)Phenyl)Urea]	33.4
C=CC(=O)NCc1ccccc1CN(C(=O)Nc1cccc(C(F)(F)F)c1)C1CCN(C(C)CCC)CC1 (stereo not shown) [A239]	> 51.2
O=C(c1ccc(Br)cc1)N1CCCC(c2nc3ccccc3s2)C1 (stereo not shown) [D27]	> 67.6
C#CCCCN1CCC(N(Cc2ccccc2NC(=O)CCl)C(=O)Nc2cccc(C(F)(F)F)c2)CC1 [A253]	> 6.89
CC(Cc1cccc(C(F)(F)F)c1)NC1CCN(Cc2ccccc2)CC1 (stereo not shown) [B38]	> 61.3
CCN1CCC(N(Cc2ccc3c(c2)OCO3)C(=O)Nc2cccc(Br)c2)CC1 [B4]	4.06
CCCC(C)N1CCC(N(Cc2ccccc2)C(=O)Nc2cccc(O)c2)CC1 (stereo not shown) [A177]	14.5
O=C(Nc1ccc(Br)cc1Cl)NC1CCN(Cc2ccccc2)CC1 [B50]	> 67.6
CCCC(C)N1CCC(N(Cc2ccccc2)C(=O)Nc2ccc(C(N)=O)cc2)CC1 (stereo not shown) [A258]	> 62.2
CCOc1ccc(NC(=O)N(Cc2ccco2)C2CCN(CC)CC2)cc1 [B80]	> 67.6
CCCC(C)N1CCC(N(CCNC(=O)CCl)C(=O)Nc2cccc(C(F)(F)F)c2)CC1 (stereo not shown) [drawing 837]	> 60
